According to patent US9795652B2, “Use of endogenous antioxidant proteins in the treatment of stroke” (University of South Florida, priority 2010, dated 2017):

Test system: primary rat oligodendrocyte cultures
Experiment: LIF protection of oligodendrocytes from oxygen glucose deprivation (extracellular LDH)
Format: cell-based
Conditions: 24 hours OGD
Protocol: OL cell death in culture was determined using the LDH assay (Takara Bio, Inc., Madison, Wis.), since cell death is associated with LDH release through the plasma membrane. LDH is present in a large number of tissues, like the heart, liver, kidney, skeletal muscle, brain, blood cells, and lungs. Tissue breakdown releases LDH, thereby elevating circulating LDH and indicating tissue damage. Briefly, 100 μl of tissue culture media from each experimental group was added to a 96-well plate and 100 μl of LDH reagent was added to each well. Plates were incubated for 30 min at 25° C. and absorbances were read on a microplate reader at a 548 nm wavelength. The media from HUCB cell only cultures served as a control for HUCB cell death. The absorbance of HUCB cell only media, as well as the absorbance of media only, was subtracted from the total absorbance of the OL wells to eliminate background LDH activity.
An oxygen deprivation model was used to test the effect of LIF on primary rat oligodendrocyte cultures. Cells were grown in neurobasal medium containing B27 and […] glutamine prior to OGD. To simulate ischemic conditions, the neurobasal medium was replaced with DMEM containing no glucose (OGD). The cells were then exposed to 1% O2, 5% CO2 and 94% N2 for 24 hours. No LIF (OGD) or LIF was added to the cells, at the concentrations indicated. […]

leukemia inhibitory factor [LIF]
extracellular LDH levels compared to untreated (OGD) (LIF 100 pg): about 47.6% | extracellular LDH compared to untreated cells (LIF 50 ng): approximately 2.7%
